Data set [1] relates to SH-SY5Y cells. Nature of the data set: Metabolic activity, MTS assay, SH-SY5Y. Type of data set: cell-based. Conditions: 24 h, 1–100 μmol/L. (In general: Formazan colour is commonly taken as a measure of viable cells.)
Data set [2] addresses T1, purified recombinant hMAO-B (Homo sapiens, UniProt P27338).
T1 sequence (P27338 1-520): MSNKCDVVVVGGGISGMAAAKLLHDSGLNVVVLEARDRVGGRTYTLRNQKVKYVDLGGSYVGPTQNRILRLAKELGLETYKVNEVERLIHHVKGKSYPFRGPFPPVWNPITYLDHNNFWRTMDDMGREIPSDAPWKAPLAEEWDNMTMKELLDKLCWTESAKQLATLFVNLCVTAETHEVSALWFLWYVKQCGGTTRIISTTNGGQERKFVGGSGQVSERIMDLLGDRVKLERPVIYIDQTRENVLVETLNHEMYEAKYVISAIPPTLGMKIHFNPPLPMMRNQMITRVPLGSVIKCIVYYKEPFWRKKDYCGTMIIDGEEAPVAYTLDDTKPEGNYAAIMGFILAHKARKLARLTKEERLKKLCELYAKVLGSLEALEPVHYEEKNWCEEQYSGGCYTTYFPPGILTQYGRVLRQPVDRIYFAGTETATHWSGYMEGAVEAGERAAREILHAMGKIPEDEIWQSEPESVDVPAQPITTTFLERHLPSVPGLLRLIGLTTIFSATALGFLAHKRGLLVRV
The data set is described as follows: hMAO-B steady-state kinetics, direct MMTP assay. Conditions: MMTP substrate. Type of data set: biochemical.

The subject of data set [3] is mice. The data set is described as follows: Rotarod test. Type of data set: in vivo. Conditions: 30 mg/kg i.p.; 6, 18, and 24 rpm. (In the rotarod test animals must keep their balance on a rotating rod.)
Data set [4] deals with Aβ1–42 (Homo sapiens, UniProt P05067). Nature of the data set: Aβ1–42 aggregation inhibition, ThT fluorescence assay. Type of data set: biochemical.
Data set [5] in a line: BBB-PAMPA permeability. Conditions: PAMPA, pH 7.4, BBB–PAMPA permeability Papp (mean ± SD), pH 7.4, 4 h, 25 °C, brain sink buffer.
For data set [6], the system named is LPS-activated BV2 cells. The data set is described as follows: Neuroprotection in LPS-induced BV2 neuroinflammation model, 7-AAD. Type of data set: cell-based. Conditions: BV2, LPS 1 μg/mL, 19 at 0.5–5 μmol/L.
Data set [7] has as its system SH-SY5Y cells treated with 6-OHDA. Nature of the data set: Neuroprotection against 6-OHDA toxicity, 7-AAD. Conditions: 100 μmol/L 6-OHDA. Type of data set: cell-based.
Data set [8] deals with LPS-activated BV2 cells. Nature of the data set: Nitrite quantification, Griess assay, LPS-stimulated BV2. Conditions: BV2, LPS 1 μg/mL, 19 at 5 μmol/L. Type of data set: cell-based. A general note: Griess reagent forms a coloured azo dye with nitrite.
Data set [9] relates to HepG2 cells. Nature of the data set: Metabolic activity, MTS assay, HepG2. Type of data set: cell-based. Conditions: HepG2, 24 h, 1–100 μmol/L.
Data set [10] deals with T2, hBChE (Homo sapiens, UniProt P06276). Nature of the data set: hBChE inhibition, Ellman's method. Type of data set: biochemical. Conditions: hBChE IC50, abstract.
Data set [11] concerns microglial BV2 cells. The data set is described as follows: Cytotoxicity, 7-AAD flow cytometry, BV2. Type of data set: cell-based. Conditions: at 10 μmol/L; sentence does not say which of SH-SY5Y/BV2.
The target in data set [12] is T2, hBChE. The data set is described as follows: hBChE inhibition kinetics, progress curves of BTCI hydrolysis. Type of data set: biochemical. Conditions: 50 μmol/L BTCI, 25 °C, pH 7.0.
Data set [13] concerns APPSwe/PS1δE9 double transgenic mice. Nature of the data set: Aβ plaque load after chronic treatment, Thioflavin S staining. Conditions: male and female mice at 10 months of age, 0.62 mg/kg/day, 4-month treatment.
The nature of data set [14]: DPPH radical-scavenging assay. Conditions: read-out: Radical-scavenging DPPH assay EC50; means ± SEM (n = 2, in triplicates).
A short description of data set [15]: Metal chelation, UV–Vis spectra and Cu2+ titration. Conditions: 30 μmol/L QN, equimolar metal ion, HEPES pH 7.4. Type of data set: physicochemical.

As usually defined, the Papp is a coefficient for how fast a substance crosses the barrier. High values mean ready permeation, low ones poor permeation. Usually IC50 stands for the midpoint of a concentration-inhibition curve. In general, EC50 refers to the midpoint of the concentration-response curve.

Aβ1–42, sequence (P05067 672-713): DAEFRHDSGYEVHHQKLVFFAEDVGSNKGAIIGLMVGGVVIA
T2 sequence (P06276 29-602): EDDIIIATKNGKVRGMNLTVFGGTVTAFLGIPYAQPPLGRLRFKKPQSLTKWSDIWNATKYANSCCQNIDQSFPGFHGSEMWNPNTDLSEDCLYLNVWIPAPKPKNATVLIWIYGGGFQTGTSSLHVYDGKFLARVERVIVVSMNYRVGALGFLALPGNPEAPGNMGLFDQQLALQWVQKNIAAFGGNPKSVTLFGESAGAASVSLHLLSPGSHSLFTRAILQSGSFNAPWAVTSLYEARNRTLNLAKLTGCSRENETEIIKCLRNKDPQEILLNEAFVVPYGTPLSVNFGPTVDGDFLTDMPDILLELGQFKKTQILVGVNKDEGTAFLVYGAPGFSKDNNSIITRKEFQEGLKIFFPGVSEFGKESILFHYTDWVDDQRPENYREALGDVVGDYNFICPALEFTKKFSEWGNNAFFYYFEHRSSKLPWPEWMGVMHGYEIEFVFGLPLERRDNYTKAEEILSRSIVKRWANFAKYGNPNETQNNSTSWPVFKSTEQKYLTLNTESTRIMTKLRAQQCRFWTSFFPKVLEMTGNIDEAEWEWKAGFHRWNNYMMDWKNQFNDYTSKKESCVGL

On to `[O-]/[N+](=C\c1ccc2cccc(O)c2n1)Cc1ccccc1` [QN 19, (Z)-N-Benzyl-1-(8-hydroxyquinolin-2-yl)methanimine oxide], for which the “concentrations at which metabolic activity is reduced (MTS)” value in [1] and in [9] was “higher than 10 μmol/L” each time. For the same molecule, the “mode of hMAO-B inhibition (best fit)” value in data set [2] is “competitive inhibition model”. Moreover, the “motor impairments in the rotarod test” value in data set [3] is recorded as “did not result in any motor impairments”. The “Inhibition of Aβ1–42 aggregation” value in data set [4] (10 μmol/L ligand and 1.5 μmol/L Aβ1–42, mean ± SD (n ≥ 3)) is “n.i. ^e (n.i., no inhibition <20%)”. Moreover, the “inhibition of self-induced aggregation of Aβ1–42 (in words)” value in [4] (ThT fluorescence assay) is “inactive”. In data set [5], this molecule had a Papp at 4 h, 100 μmol/L of at least 37.2 ×10⁻⁶ cm/s. For the same molecule, in data set [6], the “neuroprotective effects on cell viability, LPS model” value is reported as “No neuroprotective effects on cell viability”. Moreover, the “cell viability under 6-OHDA co-treatment” value in data set [7] (19 at 0.5 and 1 μmol/L) is given as “increased cell viability”. Besides, in [7] (19 at 2.5 and 5 μmol/L), the “neuroprotective activity under 6-OHDA co-treatment” value is reported as “neuroprotective activity was lost”. In data set [8], the LPS-induced nitrite concentration result was “reduced LPS-induced increase in nitrite concentration”. Further, inhibition in data set [10] was half-maximal at 0.00106 ± 0.00031 µM (IC50). Besides, the “cell viability (7-AAD)” value in data set [11] is on record as “reduced cell viability to a significant extent”. The “Kii, dissociation constant for binding of the second molecule to hBChE” value in [12] is on record as 14.5 nmol/L. In addition, the “effect on Aβ plaques of chronic treatment started later” value in data set [13] is “inefficient”. In addition, in [14], the EC50 worked out at 126 ± 0.1 µM. The “chelation of Ca^2+ and Mg^2+” value in data set [15] is recorded as “did not chelate”. Also, the “complexes with Zn^2+, Cu^2+, Al^3+, Fe^2+ and Fe^3+” value in [15] is listed as “generated corresponding complexes”.

The record behind these values is article PMC10213797 (Acta Pharmaceutica Sinica. B, 2023).
